The test system of data set [1] is c-MYC Pu22 (DNA, G4) TGAGGGTGGGTAGGGTGGGTAA
Description: ligand fluorescence enhancement. To be noted: 100 mM K+ (KCl) plus potassium phosphate; 10 mM K2HPO4/KH2PO4 pH 7.0; 3 µM compound, 4 µM DNA; enhancement below 3-fold.

In data set [2] the test system is HT29 xenograft. As to the kind of experiment: HT29 xenograft mouse model. Type of data set: in vivo. As for the experimental part:
Male BALB/C-nu/nu mice (4 weeks old) were purchased from the Beijing Vital River Laboratory Animal Technology Co., Ltd. and housed at Experimental Animal Center of Huazhong Agriculture University (Wuhan, China) and maintained in pathogen-free conditions (12 h light–dark cycle at 24 ± 1°C with 60−70% humidity and provided with food and water ad libitum). HT29 cells were harvested during log-phase growth and were resuspended in FBS-free DMEM medium to the density of 4 × 10^6 cells per 100 μl. 100 μl cells were injected subcutaneously in the right back of the mice. Tumor growth was examined three times a week after implantation, until the tumor volume reached ∼40 mm^3. The mice were randomly divided into two groups, and each group had five mice. Subcutaneous injection was carried out with BMPQ-1 at a dose of 15 mg/kg for the mice in the experimental group. Mice in the control group were treated with an equivalent volume of normal saline. The volume of the tumor mass was measured with an electronic caliper and calculated as 1/2 × length × width^2 in mm^3. The tumors size and the body weight of the mice were measured every day after drug treatment, and growth curves were plotted using average tumor volume within each experimental group. After treatment for 3 weeks, tumor tissues were collected and tested for the weight and the volume.
We tested BMPQ-1 in a HT29 xenograft mouse model of human colon adenocarcinoma. HT29 tumors were established through the subcutaneous injection of HT29 cells into the right back of BALB/C-nu/nu mice ([57],[58]). The mice were divided into normal saline treated group, and BMPQ-1 (15 mg/kg) treated group, n = 5/group. Subcutaneous injection was given daily. After 3 weeks treatment, the tumors were excised and measured for final size (Figure 3B). The tumor volume in the normal saline group reached 700 mm^3 (Figure 3C). In contrast, in the tumor-bearing mice treated with BMPQ-1, the tumor volume was ∼300 mm^3.

Data set [3] has as its system human normal liver cells (HL-7702). Description: Cell cytotoxicity assay (CCK8). Type of data set: cell-based. Conditions: L02, CCK8, 48 h treatment. As to the method: The cell growth effect of BMPQ-1 against different cell lines were tested via measuring the quantity of living cells using the Cell Counting Kit-8 (CCK8) (DOJINDO, Japan) according to the instruction. Cells were seeded in a 96-well plate (5 × 10^3 cells/well) and grown for 24 h for attachment. Then the cells were treated with various concentrations of BMPQ-1 and incubated at 37°C with 5% CO2 for 48 h. After incubation, the old medium was discarded followed by adding fresh medium containing 10% FBS in DMEM. Then 100 μl CCK-8 (10% in grow medium) was added into each well, and the cells were further incubated for 1 h. The optical density (OD) was detected at 450 nm by an automated microplate reader (Bio-Rad). The IC50 values were derived from the curves of the mean percentage of survival against the drug concentration. All the experiments were performed in triplicate.
A Cell Counting Kit-8 (CCK8) (DOJINDO, Japan) was employed to evaluate the cytotoxicity of BMPQ-1 on human alveolar basal epithelial cancer cell line (A549), human hepatocellular carcinoma cancer cell line (HepG2), human gastric cancer cell line (MGC-803), human colon adenocarcinoma (HT29), human normal liver Cells (HL-7702).

For data set [4], the system named is TTA (DNA, G4) GGGTTAGGGTTAGGGTTAGGG
As to the kind of experiment: CD melting. Conditions: 50 mM K+; 10 mM Tris-HCl pH 7.4; 5 µM DNA, 20 µM compound.

Data set [5] relates to BG4 foci (DNA G-quadruplexes) in A549 cells. As to the kind of experiment: Immunofluorescence of BG4 and TRF2 foci. Type of data set: cell-based, human. Conditions: A549, 1.5 μM, 24 h. As to the method: The cells (5 × 10^4 cells) were seeded on 35-mm glass-bottomed dishes and grown for 24 h for attachment. Then old medium was replaced by fresh DMEM containing 1.5 μM BMPQ-1 and incubated for 24 h. After washed three times with PBS buffer, the cells were fixed in 4% paraformaldehyde/PBS for 15 min and then permeabilized with 0.3% Triton-X 100/PBS at 37°C for 20 min. Then the cells were blocked with 5% BSA/PBS at 37°C for 1 h. Finally, the cells were incubated with primary antibodies at 37°C for 3 h. After that, the cells were washed six times with blocking buffer, and were then incubated with secondary antibodies at 37°C for 3 h. Finally, the cells were washed six times with PBS buffer again. The digital images were recorded using a confocal laser scanning microscopy (Olympus FV1000) and analyzed with ImageJ software. One hundred nuclei were counted in each group. […]
Figure 2. […] (B) Quantification of the number of γH2AX foci per nucleus in A549 cells treated with or without BMPQ-1. (C) Quantification of the colocalization of γH2AX and TRF2 per nucleus in A549 cells treated with or without BMPQ-1. […] (E) Quantification of the number of BG4 foci per nucleus in A549 cells treated with or without BMPQ-1. (F) Quantification of the colocalized BG4 and TRF2 per nucleus in A549 cells treated with or without BMPQ-1.

For data set [6], the system named is VEGF (DNA, G4) GGGAGGGTTGGGGTGGG
Description: ligand fluorescence enhancement. Conditions: 100 mM K+ (KCl) plus potassium phosphate; 10 mM K2HPO4/KH2PO4 pH 7.0; 3 µM compound, 4 µM DNA; enhancement below 3-fold.

The test system of data set [7] is TTA45 (DNA, G4) GGGTTAGGGTTAGGGTTAGGGTTAGGGTTAGGGTTAGGGTTAGGG
As to the kind of experiment: ligand fluorescence enhancement. To be noted: 100 mM K+ (KCl) plus potassium phosphate; 10 mM K2HPO4/KH2PO4 pH 7.0; 3 µM compound, 2 µM DNA; 10-fold increase at 521 nm.

Data set [8] concerns TBA (DNA, G4) GGTTGGTGTGGTTGG
Description: CD melting. Conditions: 50 mM K+; 10 mM Tris-HCl pH 7.4; 5 µM DNA, 20 µM compound.

The mark [9] stands for this setting: 15 mg/kg subcutaneous daily, 3 weeks.

SMILES strings stand for the structures.

On to `Cc1ccc(Cn2cc3c(-c4ccc5c(c4)OCO5)nnc-3c3cc4c(cc32)OCO4)cc1` [BMPQ-1], for which the binding result is on record as “weak” in data set [1], “weak” in data set [6] and “yes” in data set [7]. Besides, the mouse body weight result in data set [2] (setting [9]) is reported as “no significant change”. The tumor weight entry in data set [2] (setting [9]) was “obvious decrease”. In addition, in data set [2] (15 mg/kg subcutaneous daily, 3 weeks, saline group 700 mm^3), the tumor volume is recorded as about 300 mm^3. In addition, the “tumor growth rate in mouse” value in data set [2] (versus control) is given as “by half”. Moreover, half-maximal inhibition in data set [3] (IC50) was put at 4.38 ± 0.39 µM. Also, the ΔTm was 8.4 °C in data set [4] and 4.7 °C in data set [8]. Moreover, in data set [5], the “amount of BG4 foci in the nucleus” value was “significant increase”. For the same compound, the “amount of co-localized BG4 and TRF2 foci” value in data set [5] is reported as “significantly increased”.

(Values after paper PMC7672424 (Nucleic Acids Research, 2020).)
